Reference: PubChem BioAssay (NCI)
Several values for one entry are separate records, joined by “and”; a condition that tells them apart may be missing. Equal values may be shown once.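 Growth conditions: 96-well plates. Treatment: test compound, 48 hours, 5 concentrations. Analysis: linear interpolation between bracketing concentrations; unreached endpoints set to highest concentration. GI50 marks 50% less growth. At the TGI there is no net growth.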

Assays:
Test in all cases: NCI anticancer screen, dose series, 48 h
A498 renal = tested on: A498 renal
K-562 leukemia = tested on: K-562 leukemia
MALME-3M melanoma = tested on: MALME-3M melanoma
NCI-H23 lung = tested on: NCI-H23 lung
OVCAR-8 ovarian = tested on: OVCAR-8 ovarian
SK-OV-3 ovarian = tested on: SK-OV-3 ovarian
UO-31 renal = tested on: UO-31 renal

SMILES | TGI (A498 renal) | TGI (K-562 leukemia) [µM] | TGI (MALME-3M melanoma) [µM] | TGI (NCI-H23 lung) [µM] | TGI (OVCAR-8 ovarian) [µM] | TGI (SK-OV-3 ovarian) [µM] | TGI (UO-31 renal) [µM] | GI50 (A498 renal) | GI50 (K-562 leukemia) [nM] | GI50 (MALME-3M melanoma) [nM] | GI50 (NCI-H23 lung) | GI50 (OVCAR-8 ovarian) [nM] | GI50 (UO-31 renal) [nM]
CCn1c(CCCc2nc3c([nH]2)c(=O)n(C)c(=O)n3C)nc2c1c(=O)n(C)c(=O)n2C | > 100 µM | > 100 | > 100 | > 100 | > 100 | > 100 | > 100 | – | – | – | – | – | –
CCCCCCc1ccc(CCCCCCCC(=O)O)o1 | – | 71.6 | – | > 100 | > 100 | > 100 | > 100 | – | – | – | – | – | –
N=c1ncn(C/C=C/c2ccccc2)c2nc[nH]c12 | > 100 µM | > 100 | > 100 | > 100 | > 100 | > 100 | > 100 | – | – | – | – | – | –
Cc1ccc(C)n1-c1ccccc1C1C=Cn2c(=O)oc3c(OC(C)C)c(OC(C)C)c(O)c1c32 (stereo not given) | > 100 µM | > 100 | > 100 | > 100 | > 100 | > 100 | 31.9 | – | – | – | – | – | –
O=[N+]([O-])c1c(O)c2nonc2c2nn(-c3ccccc3)nc12 | – | > 100 | > 100 | > 100 | > 100 | > 100 | > 100 | – | – | – | – | – | –
O=C(CC(=O)N1N=C(c2ccccc2)C(N=Nc2ccc(S(=O)(=O)CCOS(=O)(=O)O)cc2)C1=O)Nc1ccc(Cl)cc1 (stereo not given) | > 100 µM | > 100 | > 100 | > 100 | > 100 | > 100 | > 100 | – | – | – | – | – | –
Cc1cc2nc3c(C#N)c(C)c(CCCl)c(Cl)n3c2cc1C | 7.64 µM | 6.63 | 9.28 | 5.29 | 7.55 | > 56.6 | 7.25 | – | – | – | – | – | –
Cc1ccc(/C=c2\c(=O)[nH]c3nc4ccccc4c(=O)n23)cc1 | – | – | > 100 | > 100 | > 100 | > 100 | > 100 | – | – | – | – | – | –
CCCN=C1NC(C)=CSC(Nc2ccccc2)=C1C#N | > 100 µM | > 100 | > 100 | > 100 | > 100 | > 100 | > 100 | – | – | – | – | – | –
O=C1CCCC1CC(CN1CCOCC1)Sc1nnnn1-c1ccccc1 (stereo not given) | > 100 µM | > 100 | > 100 | > 100 | > 100 | > 100 | > 100 | – | – | – | – | – | –
Cc1ccc2sc3c(NCCCN)nc4ccccc4c3c(=O)c2c1 | 4.64 µM | 4.51 | 3.3 | 3.37 | 5.91 | – | 2.98 | 1.87 µM | 2000 | 1740 | 1.82 µM | 2410 | 1510
N=C(N)SCc1nc(-c2ccc(Cl)cc2)no1 | 32.3 µM | 41.9 | 34.6 | > 100 | > 100 | > 100 | – | – | – | – | – | – | –
COc1cc2nc(-c3cccs3)nc(N3CCN(c4ccccc4)CC3)c2cc1OC | > 100 µM | > 100 | > 100 | > 100 | > 100 | > 100 | > 100 | – | – | – | – | – | –
O=C(CCCCCNC(=O)c1ccc(Cl)cc1)NO | – | > 100 | > 100 | 51.5 | 86.8 | 41 | 37.8 | – | – | – | – | – | –
O=C(O)C(Cc1ccccc1)Cc1ccccc1 | > 100 µM | > 100 | > 100 | > 100 | > 100 | > 100 | > 100 | – | – | – | – | – | –
CCCCCCCCCCCC(=O)N(CCCCCCCCC)CC(O)C(O)C(OC1OC(CO)C(O)C(O)C1O)C(O)CO (stereo not given) | 39.5 µM | 50.2 | 37.7 | 35.3 | 39.3 | – | 30.9 | – | – | – | – | – | –
C1=CC2C(C3CN(c4ccccc4)N=C13)C1C3C4C=CC21C=CC43 (stereo not given) | > 100 µM | > 100 | > 100 | > 100 | > 100 | > 100 | > 100 | – | – | – | – | – | –
O/N=C1\C/C(=N\O)c2c(Br)sc(Br)c21 | > 100 µM | > 100 | > 100 | 59.3 | 40.3 | > 100 | > 100 | – | – | – | – | – | –
O=c1c(O)c(-c2ccccc2)oc2c(CP(=O)(O)O)cccc12 | > 100 µM | > 100 | > 100 | > 100 | – | > 100 | – | – | – | – | – | – | –
Cc1nc(N)c(N2CCN(S(=O)(=O)N(Cc3ccccc3)Cc3ccccc3)CC2)c(=O)[nH]1 | – | > 100 | 56.6 | 47.8 | > 100 | – | > 100 | – | – | – | – | – | –
CCOc1ccccc1N=NC1C(=O)N(C(=O)CC(=O)Nc2ccccc2C)N=C1C (stereo not given) | > 100 µM | – | > 100 | > 100 | > 100 | 56.1 | 63.6 | – | – | – | – | – | –
CCOC(=O)c1ccc2nc3n(c2c1)C(c1c(F)cccc1F)SC3 (stereo not given) | > 100 µM | > 100 | – | > 100 | > 100 | > 100 | > 100 | – | – | – | – | – | –
CC1(C)CCCCCC(O)C(O)CCC(C)(C)C1=O (stereo not given) | > 100 µM | > 100 | > 100 | > 100 | > 100 | > 100 | > 100 | – | – | – | – | – | –
N#Cc1ccc(-c2ccc(Cl)cc2)n(C2OC(CO)C(O)C(O)C2O)c1=S (stereo not given) | > 100 µM and 57.5 µM | > 100 | > 100 | > 100 | > 100 | – | > 100 | > 100 µM and 18.9 µM | – | – | > 100 µM and 31.8 µM | – | –
C=C1c2c(n(S(=O)(=O)c3ccccc3)c3ccccc23)[C@@]2(C(=O)OC)CC3C=CC2N1C3 | – | > 100 | > 100 | > 100 | > 100 | > 100 | – | – | – | – | – | – | –
COc1ccc(/C(=N/O)c2ccccc2C2=Nc3ccccc3C(NCc3ccccc3)O2)cc1C (stereo not given) | – | 97.4 | 52.7 | > 100 | 77.1 | 82.5 | 67.5 | – | – | – | – | – | –
CSc1nnnc2ccccc12 | > 100 µM | > 100 | > 100 | > 100 | > 100 | > 100 | > 100 | – | – | – | – | – | –
COc1cc(C(c2ccccc2)N2C(=O)CC[C@H]2C(=O)O)cc(OC)c1OC (stereo not given in full) | > 100 µM | > 100 | > 100 | > 100 | > 100 | > 100 | > 100 | – | – | – | – | – | –
